From US20240174669A1, “CRYSTALLINE FORMS OF A PARP1 INHIBITOR” (XinThera, Inc., priority 2022, published 2024)
In brackets after ≈: the same amount, converted by molar mass.

Columns and labels:
Format in all cases: physicochemical
[1] = DVS moisture sorption (hygroscopicity)
Method: Moisture sorption/desorption data were collected on a DVS instrument. About 75 mg of a sample was placed into a tared sample chamber and automatically weighed. The anhydrate was analyzed with the setting parameters in the table below.

[2] = Purity of filtrates / degradation in bio-relevant media (FeSSIF); settings: for HPLC Purity API, Sample 1 / impurity RRT 1.74 / impurity RRT 1.91 / impurity RRT 1.95 / HPLC Purity API, Sample 2 / impurity RRT 1.09: FeSSIF filtrate, 220 nm; for HPLC Purity API, Sample 1 / impurity RRT 1.74 / impurity RRT 1.91 / impurity RRT 1.95 / impurity RRT 1.09: Sample 1; for Filtrate Purity 220 nm-24 h: 37° C., starting purity 99.26%
Method: About 15 mg of freebase Form II was weighed into sample vials, and then 3 mL of each media was added to make suspensions, respectively. At 0.5, 2 and 24 hours, about 1 mL of each suspension was filtered, the filtrate was analyzed by HPLC and pH, and the filter cake was analyzed by XRPD. Duplicated samples were prepared for each media.
Compared to control pH buffers, the solubility increased to ˜20 μg/mL in FaSSIF and ˜100 μg/mL in FeSSIF, possibly due to the solubilization effect of bile salt. […] Compared to FaSSIF, concentration of bile salt is 5-fold in FeSSIF. The degradation issue in FeSSIF was confirmed with another two batches (Lot #3 and Lot #2) of freebase Form II at 0.5-8 hours, as summarized in Table 12 and Table 13. Several impurities increased rapidly with time.
HPLC analysis was performed with an Agilent HPLC 1260 series instrument.

[3] = Solubility in 0.5% MC and 0.5% MC pH 3 citrate buffer; settings: 0.5% MC (400 cPs) pH 3 citrate buffer, pH 3, aqueous with cosolvent or surfactant or cyclodextrin, thermodynamic from solid, 0.5% MC pH 3 buffer (100 mM citrate), initial pH 3.0, RT, ~2 hours
Method: Solubility of freebase Form II was first measured in 0.5% MC (400 cPs) and 0.5% MC (400 cPs) pH 3 citrate buffer. About 5 mg of Form II (Lot#1) was stirred in 1 mL of media at RT for ˜2 hours. The suspension was filtered, with filtrates analyzed by HPLC and remaining solids tested by XRPD. […] Therefore, 0.5% MC pH 3 buffer was selected for suspension formulation stability study.

CNC(=O)c1ccc(N2CCN(Cc3cnc4cc(C5CC5)c(=O)[nH]c4c3)CC2)cn1 [Freebase Form II, 5-(4-((7-cyclopropyl-6-oxo-5,6-dihydro-1,5-naphthyridin-3-yl)methyl)piperazin-1-yl)-N-methylpicolinamide]
crystalline form after DVS test [1]: remained unchanged
hygroscopicity (DVS) [1]: non-hygroscopic
water uptake (DVS) ([1]; at 80% RH, 25° C.): 0.19%
purity of filtrates ([2]; FeSSIF): decreased rapidly
HPLC Purity API, Sample 1 ([2]; 0.5 hr, listed as Lot# 2): 96.72 area %
impurity RRT 1.74 ([2]; 0.5 hr, listed as Lot# 2): 0.33 area %
impurity RRT 1.91 ([2]; 0.5 hr, listed as Lot# 2): 1.00 area %
impurity RRT 1.95 ([2]; 0.5 hr, listed as Lot# 2): 0.32 area %
HPLC Purity API, Sample 1 ([2]; 0.5 hr, listed as Lot# 3): 92.74 area %
impurity RRT 1.74 ([2]; 0.5 hr, listed as Lot# 3): 0.27 area %
impurity RRT 1.91 ([2]; 0.5 hr, listed as Lot# 3): 0.72 area %
impurity RRT 1.95 ([2]; 0.5 hr, listed as Lot# 3): 0.24 area %
HPLC Purity API, Sample 2 ([2]; 0.5 hr, listed as Lot# 2): 96.89 area %
HPLC Purity API, Sample 2 ([2]; 0.5 hr, listed as Lot# 3): 92.57 area %
HPLC Purity API, Sample 1 ([2]; 2 hr, listed as Lot# 2): 80.67 area %
impurity RRT 1.09 ([2]; 2 hr, listed as Lot# 2): 1.18 area %
impurity RRT 1.74 ([2]; 2 hr, listed as Lot# 2): 1.52 area %
impurity RRT 1.91 ([2]; 2 hr, listed as Lot# 2): 5.63 area %
impurity RRT 1.95 ([2]; 2 hr, listed as Lot# 2): 0.89 area %
HPLC Purity API, Sample 1 ([2]; 2 hr, listed as Lot# 3): 91.52 area %
impurity RRT 1.09 ([2]; 2 hr, listed as Lot# 3): 0.22 area %
impurity RRT 1.74 ([2]; 2 hr, listed as Lot# 3): 0.35 area %
impurity RRT 1.91 ([2]; 2 hr, listed as Lot# 3): 1.09 area %
impurity RRT 1.95 ([2]; 2 hr, listed as Lot# 3): 0.39 area %
HPLC Purity API, Sample 2 ([2]; 2 hr, listed as Lot# 2): 77.22 area %
HPLC Purity API, Sample 2 ([2]; 2 hr, listed as Lot# 3): 90.33 area %
HPLC Purity API, Sample 1 ([2]; 4 hr, listed as Lot# 2): 65.06 area %
impurity RRT 1.09 ([2]; 4 hr, listed as Lot# 2): 3.56 area %
impurity RRT 1.74 ([2]; 4 hr, listed as Lot# 2): 2.64 area %
impurity RRT 1.91 ([2]; 4 hr, listed as Lot# 2): 9.12 area %
impurity RRT 1.95 ([2]; 4 hr, listed as Lot# 2): 1.67 area %
HPLC Purity API, Sample 1 ([2]; 4 hr, listed as Lot# 3): 84.44 area %
impurity RRT 1.09 ([2]; 4 hr, listed as Lot# 3): 1.00 area %
impurity RRT 1.74 ([2]; 4 hr, listed as Lot# 3): 0.82 area %
impurity RRT 1.91 ([2]; 4 hr, listed as Lot# 3): 3.55 area %
impurity RRT 1.95 ([2]; 4 hr, listed as Lot# 3): 0.69 area %
HPLC Purity API, Sample 2 ([2]; 4 hr, listed as Lot# 2): 60.63 area %
HPLC Purity API, Sample 2 ([2]; 4 hr, listed as Lot# 3): 77.77 area %
HPLC Purity API, Sample 1 ([2]; 8 hr, listed as Lot# 2): 50.99 area %
impurity RRT 1.09 ([2]; 8 hr, listed as Lot# 2): 6.24 area %
impurity RRT 1.74 ([2]; 8 hr, listed as Lot# 2): 5.16 area %
impurity RRT 1.91 ([2]; 8 hr, listed as Lot# 2): 8.77 area %
impurity RRT 1.95 ([2]; 8 hr, listed as Lot# 2): 3.62 area %
HPLC Purity API, Sample 1 ([2]; 8 hr, listed as Lot# 3): 66.91 area %
impurity RRT 1.09 ([2]; 8 hr, listed as Lot# 3): 4.10 area %
impurity RRT 1.74 ([2]; 8 hr, listed as Lot# 3): 2.41 area %
impurity RRT 1.91 ([2]; 8 hr, listed as Lot# 3): 7.91 area %
impurity RRT 1.95 ([2]; 8 hr, listed as Lot# 3): 1.57 area %
HPLC Purity API, Sample 2 ([2]; 8 hr, listed as Lot# 2): 47.77 area %
HPLC Purity API, Sample 2 ([2]; 8 hr, listed as Lot# 3): 57.55 area %
Filtrate Purity 220 nm-24 h ([2]; FeSSIF): 55%
Filtrate Purity 220 nm-24 h ([2]; SGF): 99.28%
solubility [3]: 4500 µg/mL (≈ 10.8 mM)
